Measurements from publication PMC11800497, “Antifungal activity and biocompatibility assessment with molecular docking and dynamic simulations of new pyrazole derivatives” (BMC Biotechnology, 2025).
In brackets after ≈: the same amount, converted by molar mass. Entries after “also recorded” stand apart in the source; their conditions may differ. Marks after values point to notes of the source that are not given here.

Tests used:
A. flavus ATCC 9643 [1] = assay: Minimal lethal fungal concentration (MLFC); format: cell-based, Aspergillus flavus; parameters: key to Growth in MLFC test: -: No detected growth; +: Growth observed
Protocol: (§1) The term “minimal lethal fungal concentration” (MLFC) refers to the lowest concentration of an antifungal drug that may […]. The fungus was initially subjected to different concentrations of the pyrazole compounds in order to ascertain this concentration. After that, the growth from the MIFC stage was moved to regular malt agar plates. After that, these plates are incubated for 72 h at 28 °C. After then, any growth—or lack thereof—is noted and studied.
(§2) Following the acquisition of the MFIC and MLFC records, the ratio was computed. The fungicidal activity of a pyrazole compound is defined as a ratio […].

A. niger ATCC 11414 [2] = assay: Minimal lethal fungal concentration (MLFC); format: cell-based, Aspergillus niger; parameters: key to Growth in MLFC test: -: No detected growth; +: Growth observed
Protocol: as §1, §2

[3] = test system: P. chrysogenum ATCC 10106; assay: Well-diffusion antifungal activity; format: cell-based, Penicillium chrysogenum; settings: 1000 µg/ml; for zone of inhibition at 1000 µg/mL: Penicillium chrysogenum, ATCC10106, 72 h, 28 °C, read-out: IZD
Protocol: (§3) This study investigated strains of four distinct fungal pathogens: Aspergillus flavus ATCC 9643, A. niger ATCC 11414, Rhizopus oryzae ATCC 96382, and Penicillium chrysogenum ATCC 10106. Every strain was acquired from the Dep. of Micro. Fac. Agric., […] Uni., in Egypt. Initially kept and preserved in malt agar medium at 4 °C, the pathogens were then grown overnight at 28 °C in malt broth medium to evaluate the antifungal activity. Fungal pathogen standard inoculum was prepared by following the procedure described by. To assess the antifungal activity, the pathogens were first maintained and stored at 4 °C in malt agar medium. They were then cultured in malt broth medium for a whole night at 28 °C. According to [22], the well-diffusion technique was used to test the antifungal activity. This included using a 9.0 mm cork borer that had been sterilized to create wells in the malt agar layer. […] After adding 1000 μg/ml of control pyrazole compounds and the standard antifungal (Fluconazole 1000 μg/ml) to each well, the petri dishes were incubated at 28 °C for 72 h. The diameter of the standard reference antifungal was compared to the millimeters measurements of the inhibitory zones. The formula according to [22] was utilized to compute the activity index (AI).1 [drawing 1]

A. niger ATCC 11414 [4] = assay: Well-diffusion antifungal activity; format: cell-based, Aspergillus niger; settings: 1000 µg/ml, 72 h, 28 °C; for zone of inhibition at 1000 µg/mL: Aspergillus niger, ATCC11414, read-out: IZD
Protocol: This study investigated strains of four distinct fungal pathogens: Aspergillus flavus ATCC 9643, A. niger ATCC 11414, Rhizopus oryzae ATCC 96382, and Penicillium chrysogenum ATCC 10106. Every strain was acquired from the Dep. of Micro. Fac. Agric., […] Uni., in Egypt. Initially kept and preserved in malt agar medium at 4 °C, the pathogens were then grown overnight at 28 °C in malt broth medium to evaluate the antifungal activity. Fungal pathogen standard inoculum was prepared by following the procedure described by [19, 20]. To assess the antifungal activity, the pathogens were first maintained and stored at 4 °C in malt agar medium. They were then cultured in malt broth medium for a whole night at 28 °C. According to [22], the well-diffusion technique was used to test the antifungal activity. This included using a 9.0 mm cork borer that had been sterilized to create wells in the malt agar layer. […] After adding 1000 μg/ml of control pyrazole compounds and the standard antifungal (Fluconazole 1000 μg/ml) to each well, the petri dishes were incubated at 28 °C for 72 h. The diameter of the standard reference antifungal was compared to the millimeters measurements of the inhibitory zones. The formula according to [22] was utilized to compute the activity index (AI).1 [drawing 1]

[5] = test system: A. niger ATCC 11414 and A. flavus ATCC 9643; assay: Activity spectrum in MFIC/MLFC tests (share of strains inhibited); format: cell-based, Aspergillus niger, Aspergillus flavus
Protocol: (§4) In diagnostic laboratories, minimum inhibitory concentrations (MICs) are essential for confirming fungal resistance to an antifungal drug and monitoring the effectiveness of new antifungal medicines. MICs were computed in accordance with the recommendations established by the National Committee for Clinical Laboratory Standards (CLS). In dimethyl sulfoxide (DMSO), pyrazoles were serially diluted twice (1/2, 1/4, and 1/8) and heated at 70 °C for 10 min to get final concentrations of 1000–125 μg/ml, respectively. After that, these dilutions were put into wells that had already been created on plates with fungal infestations. Using a calibrated micropipette, fungus spore suspensions were prepared and added to malt agar welled plates then incubated for 72 h at 28 °C.
as §1

A. flavus ATCC 9643 [6] = assay: Well-diffusion antifungal activity; format: cell-based, Aspergillus flavus; settings: 1000 µg/ml; for zone of inhibition at 1000 µg/mL: Aspergillus flavus, ATCC9643, read-out: IZD
Protocol: as §3

[7] = test system: HFB4 normal human skin cell line; assay: Biocompatibility, MTT assay; format: cell-based
Protocol: (§5) A complete monolayer sheet was created by incubating the 96-well tissue culture plate at 37 °C for 24 h following inoculation with 1 × 10^5 cells/ml (100 µl/well), following the procedure described by. Following the establishment of a confluent sheet of cells, the growth material was collected from the 96-well micro titer plates, and the cell monolayer underwent two washing media washes. […] They then evaluated 0.1 ml of each dilution in several wells. We looked at the cells for physical signs of toxicity, including granulation, rounding, shrinkage, and partial or complete loss of the monolayer. Following the phosphate buffer solution’s preparation, each well received 20 µl of a 5 mg/ml MTT (3-(4,5-dimethylthiazol-2-yl-)-2,5 diphenyltetrazolium bromide) solution from Bio Basic Canada Inc. After that, place it on a shaking table and shake it for five minutes at 150 rpm to completely integrate the MTT. to allow MTT to metabolize, followed by incubation for 4 h at 37 °C with 5% CO2. Media was taken out if necessary, and paper towels were used to wipe out any remaining material from the plate. One may re-dissolve formazan, a metabolic product of MTT, in 200 µL of DMSO. Put on a shaking table and shaken for five minutes at 150 rpm to fully mix the formazan and solvent. At 560 nm, optical density was measured, and at 620 nm, background was subtracted. There should be a direct relationship between optical density and cell number.3 [drawing 3]

[8] = Biocompatibility, MTT assay; format: cell-based, human; settings: human, HFB4 normal human skin cells
Protocol: as §5

A. flavus ATCC 9643 [9] = assay: Minimal fungal inhibitory concentration (MFIC); format: cell-based, Aspergillus flavus; parameters: key to Growth in MFIC test: -: No detected growth; +: Growth observed; settings: 72 h, 28 °C
Protocol: as §4

A. niger ATCC 11414 [10] = assay: Minimal fungal inhibitory concentration (MFIC); format: cell-based, Aspergillus niger; parameters: key to Growth in MFIC test: -: No detected growth; +: Growth observed; settings: 72 h, 28 °C
Protocol: as §4

R. oryzae ATCC 96382 = assay: Well-diffusion antifungal activity; format: cell-based, Rhizopus oryzae; settings: Rhizopus arrhizus, ATCC96382; 1000 µg/ml, 72 h, 28 °C; read-out: IZD
Protocol: as §3

A. niger = test system: A. niger; parameters: method as in PMID 31926784; settings: cited from earlier work
A. fumigatus = test system: A. fumigatus; parameters: method as in PMID 31926784; settings: cited from earlier work
A. flavus = test system: A. flavus; parameters: method as in PMID 31926784; settings: cited from earlier work
[11] = relative to Fluconazole 1000 µg/ml

In the case of `COc1ccc(NC(=O)/C(C#N)=C/c2cn(-c3ccccc3)nc2-c2ccccc2)cc1` [3b], the “Antifungal effect (ratio of MLFC and MFIC)” value (A. flavus ATCC 9643 [1]) is reported as 2, the “Growth in MLFC test” value (A. flavus ATCC 9643 [1]; 125 µg/ml, 72 h, 28 °C) is reported as “+” and the “Growth in MLFC test” value (A. flavus ATCC 9643 [1]; 250 µg/ml, 72 h, 28 °C) is reported as “+”. For the same molecule, the “Growth in MLFC test” value (A. flavus ATCC 9643 [1]; 500 µg/ml, 72 h, 28 °C) was “-”, the “Growth in MLFC test” value (A. flavus ATCC 9643 [1]; 1000 µg/ml, 72 h, 28 °C) was “-” and the “Dose of MLFC” value (A. flavus ATCC 9643 [1]; 72 h, 28 °C) was 500 µg/mL. The “Antifungal effect (ratio of MLFC and MFIC)” value (A. niger ATCC 11414 [2]) was 2, the “Growth in MLFC test” value (A. niger ATCC 11414 [2]; 125 µg/ml, 72 h, 28 °C) was “+” and the “Growth in MLFC test” value (A. niger ATCC 11414 [2]; 250 µg/ml, 72 h, 28 °C) was “+”. For the same molecule, the “Growth in MLFC test” value (A. niger ATCC 11414 [2]; 500 µg/ml, 72 h, 28 °C) was “-”, the “Growth in MLFC test” value (A. niger ATCC 11414 [2]; 1000 µg/ml, 72 h, 28 °C) was “-” and the “Dose of MLFC” value (A. niger ATCC 11414 [2]; 72 h, 28 °C) was 500 µg/mL. For the same molecule, the “AI (activity index)” value [3, 11] was 0.87, the zone of inhibition at 1000 µg/mL [3] was 20 ± 0.11 mm and the IZD (A. niger ATCC 11414 [4]) was 32 ± 0.14^a mm. The zone of inhibition at 1000 µg/mL (A. niger ATCC 11414 [4]) was 32 mm, the “Activity spectrum (MLFC)” value ([5]; 125 µg/ml) was 0/2 (0%) and the “Activity spectrum (MLFC)” value ([5]; 250 µg/ml) was 0/2 (0%). For the same molecule, the “Activity spectrum (MLFC)” value ([5]; 500 µg/ml) was 2/2 (100%), the “Activity spectrum (MLFC)” value ([5]; 1000 µg/ml) was 2/2 (100%) and the IZD (A. flavus ATCC 9643 [6]; 72 h, 28 °C) was 30 ± 0.13^b mm. For the same molecule, the “AI (activity index)” value (A. flavus ATCC 9643 [6]; [11]) was 1.0, the zone of inhibition at 1000 µg/mL (A. flavus ATCC 9643 [6]; 72 h, 28 °C) was 30 mm and the Toxicity % ([7]; 31.25 µg/ml) was 0.177%. For the same molecule, the Toxicity % ([7]; 62.5 µg/ml) was 0.118%, the Toxicity % ([7]; 125 µg/ml) was 0.118% and the Toxicity % ([7]; 250 µg/ml) was 0.236%. For the same molecule, the Toxicity % ([7]; 500 µg/ml) was 0.354%, the Toxicity % ([7]; 1000 µg/ml) was 0.767% and the “Changes of HFB4 cells” value ([7]; concentrations 31.25–1000 µg/ml) was “no significant changes”. For the same molecule, the “IC50 (cytotoxicity)” value ([7]; tested up to 1000 µg/ml) was “no IC50 dose obtained; also recorded: no IC50 dose was determined”, the viability at 31.25 µg/ml ([8]; 31.25 µg/ml) was 99.9% and the viability at 62.5 µg/ml ([8]; 62.5 µg/ml) was 99.8%. For the same molecule, the viability at 125 µg/ml ([8]; 125 µg/ml) was 99.9%, the viability at 250 µg/ml ([8]; 250 µg/ml) was 99.8% and the viability at 500 µg/ml ([8]; 500 µg/ml) was 99.6%. The viability at 1000 µg/ml ([8]; 1000 µg/ml) was 99.2%, the “Growth in MFIC test” value (A. flavus ATCC 9643 [9]; 125 µg/ml) was “+” and the “Growth in MFIC test” value (A. flavus ATCC 9643 [9]; 250 µg/ml) was “-”. The “Growth in MFIC test” value (A. flavus ATCC 9643 [9]; 500 µg/ml) was “-”, the “Growth in MFIC test” value (A. flavus ATCC 9643 [9]; 1000 µg/ml) was “-” and the “Dose of MFIC” value (A. flavus ATCC 9643 [9]) was 250 µg/mL. For the same molecule, the “Growth in MFIC test” value (A. niger ATCC 11414 [10]; 125 µg/ml) was “+”, the “Growth in MFIC test” value (A. niger ATCC 11414 [10]; 250 µg/ml) was “-” and the “Growth in MFIC test” value (A. niger ATCC 11414 [10]; 500 µg/ml) was “-”. The “Growth in MFIC test” value (A. niger ATCC 11414 [10]; 1000 µg/ml) was “-”, the “Dose of MFIC” value (A. niger ATCC 11414 [10]) was 250 µg/mL and the zone of inhibition at 1000 µg/mL (R. oryzae ATCC 96382) was 0 mm.

For `O=C1c2c(Br)c(Br)c(Br)c(Br)c2C(=O)N1N=Cc1cn(-c2ccccc2)nc1-c1ccccc1` [compound 6, 4,5,6,7-tetrabromo-2-(((1,3-diphenyl-1H-pyrazol-4-yl)methylene)amino)isoindoline-1,3-dione], the minimum inhibitory concentration (A. niger) is listed as 250 µg/mL (≈ 353 µM), the minimum inhibitory concentration (A. fumigatus) is listed as 250 µg/mL (≈ 353 µM) and the zone of inhibition at 1000 µg/mL [3] is listed as 0 mm. For the same molecule, the zone of inhibition at 1000 µg/mL (A. niger ATCC 11414 [4]) was 0 mm, the zone of inhibition at 1000 µg/mL (A. flavus ATCC 9643 [6]; 72 h, 28 °C) was 0 mm and the minimum inhibitory concentration (A. flavus) was 250 µg/mL (≈ 353 µM). For the same molecule, the zone of inhibition at 1000 µg/mL (R. oryzae ATCC 96382) was 0 mm.
